In ChEMBL document CHEMBL6178023 (J Med Chem, 2025):
pEC50, pIC50: −log10 of the molar value. Values after ≈ are worked out from the molar mass of the structure shown. Active and inactive are the calls of the source. The rule behind the calls is not given here.

How the values were obtained:
Chikungunya virus [1] = test: Antiviral activity against CHIKV 181/25 expressing nLuc-capsid gene infected in human MRC5 cells assessed as reduction in viral replication preincubated with cells for 1 hr followed by viral infection measured after 6 hrs post-infection by Nano-glo luciferase assay; assay type: functional, organism-based; settings: for EC50: 181/25, MRC5, read-out: pEC50 (converted)
[2] = Aqueous solubility of compound in PBS at pH 7.4; assay type: physicochemical
MRC5 = test: Cytotoxicity against human MRC5 cells at 10 to 40 uM by Cell Titer Glo assay; assay type: toxicity, cell-based; settings: mrc5, 40 µM, dose 10-40 µM
Polyprotein P1234 = Polyprotein P1234 (Chikungunya virus (strain S27-African prototype) (CHIKV), UniProt Q8JUX6); test: Inhibition of N-terminal 6-His/SUMO-tagged CHIKV 181/25 nsP2 extracted from Escherichia coli Rosetta 2 preincubated for 30 mins followed by ATP addition measured after 1 hr by ADP-Glo assay
Polyprotein P1234, sequence (Q8JUX6 536-1333 limits assumed): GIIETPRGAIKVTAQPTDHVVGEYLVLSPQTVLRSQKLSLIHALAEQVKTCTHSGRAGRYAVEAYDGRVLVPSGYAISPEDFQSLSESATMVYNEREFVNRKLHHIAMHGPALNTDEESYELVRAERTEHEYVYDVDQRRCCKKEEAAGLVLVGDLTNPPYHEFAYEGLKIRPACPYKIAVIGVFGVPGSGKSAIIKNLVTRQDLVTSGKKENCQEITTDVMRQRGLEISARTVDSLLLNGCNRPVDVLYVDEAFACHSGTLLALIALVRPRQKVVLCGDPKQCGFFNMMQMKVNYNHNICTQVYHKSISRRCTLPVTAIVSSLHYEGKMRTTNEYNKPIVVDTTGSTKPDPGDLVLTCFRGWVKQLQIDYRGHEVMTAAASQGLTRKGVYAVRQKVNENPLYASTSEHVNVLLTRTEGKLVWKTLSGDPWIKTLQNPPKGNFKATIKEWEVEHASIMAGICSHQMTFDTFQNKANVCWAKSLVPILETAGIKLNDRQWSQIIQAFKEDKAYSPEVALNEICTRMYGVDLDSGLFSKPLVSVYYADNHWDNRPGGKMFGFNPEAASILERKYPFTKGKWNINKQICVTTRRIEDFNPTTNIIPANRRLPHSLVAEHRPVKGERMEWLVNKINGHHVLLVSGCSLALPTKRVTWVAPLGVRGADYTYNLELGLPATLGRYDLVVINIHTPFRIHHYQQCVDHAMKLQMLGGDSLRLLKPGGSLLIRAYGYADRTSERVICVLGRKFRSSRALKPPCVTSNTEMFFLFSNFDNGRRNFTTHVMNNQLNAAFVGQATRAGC

Chikungunya virus [3] = test: Inhibition of N-terminal 6-His/SUMO-tagged CHIKV 181/25 nsP2 extracted from Escherichia coli Rosetta 2 at 200 uM preincubated for 30 mins followed by ATP addition measured after 1 hr by ADP-Glo assay relative to control; settings: time 90.0 min

Compound: O=C(N1CCC2(CC1)CC(CNS(=O)(=O)C1CC1)CCO2)C1(c2ccccc2)CCCC1 (configuration not stated)
- EC50 (Chikungunya virus [1]): 3.98 µM
- solubility kinetic [2]: 180 µM (≈ 82.9 µg/mL)
- Activity (MRC5): Non-toxic
- pIC50 (Polyprotein P1234): 4.70

Compound: O=C(N1CCC2(CC1)CC(CNCC(F)(F)F)CCO2)C1(c2ccccc2)CCCC1 (configuration not stated)
- EC50 (Chikungunya virus [1]): 12.6 µM
- solubility kinetic [2]: 170 µM (≈ 74.6 µg/mL)
- Activity (MRC5): Non-toxic
- pIC50 (Polyprotein P1234): < 4.40

Compound: CN(C)S(=O)(=O)NCC1CCOC2(CCN(C(=O)C3(c4ccccc4)CCCC3)CC2)C1 (configuration not stated)
- inhibition (Chikungunya virus [3]): 90%
- EC50 (Chikungunya virus [1]): 2.51 µM
- solubility kinetic [2]: 200 µM (≈ 92.7 µg/mL)
- Activity (MRC5): Non-toxic
- pIC50 (Polyprotein P1234): < 4.40

Compound: O=C1CCCN1CC1CCOC2(CCN(C(=O)C3(c4ccccc4)CCCC3)CC2)C1 (configuration not stated)
- inhibition (Chikungunya virus [3]): 90%
- EC50 (Chikungunya virus [1]): 2.51 µM
- solubility kinetic [2]: 200 µM (≈ 84.9 µg/mL)
- Activity (MRC5): Non-toxic
- pIC50 (Polyprotein P1234): < 4.40

Compound: CC(C)C(=O)NCC1CCOC2(CCN(C(=O)C3(c4ccccc4)CCCC3)CC2)C1 (configuration not stated)
- inhibition (Chikungunya virus [3]): 80%
- EC50 (Chikungunya virus [1]): 3.98 µM
- solubility kinetic [2]: 170 µM (≈ 72.5 µg/mL)
- Activity (MRC5): Non-toxic
- pIC50 (Polyprotein P1234): < 4.40

Compound: O=C(N1CCC2(CC1)CC(Oc1ccccn1)CCO2)C1(c2ccccc2)CCCC1 (configuration not stated)
- inhibition (Chikungunya virus [3]): 60%
- EC50 (Chikungunya virus [1]): 1.26 µM
- solubility kinetic [2]: 20 µM (≈ 8.41 µg/mL)
- Activity (MRC5): Non-toxic
- pIC50 (Polyprotein P1234): < 4.40

Compound: O=C(NCC1CCOC2(CCN(C(=O)C3(c4ccccc4)CCCC3)CC2)C1)c1cccnc1 (configuration not stated)
- EC50 (Chikungunya virus [1]): 2.51 µM
- solubility kinetic [2]: 90 µM (≈ 41.5 µg/mL)
- Activity (MRC5): Non-toxic
- pIC50 (Polyprotein P1234): 4.90

Compound: CCCCCC(=O)NCC1CCOC2(CCN(C(=O)C3(c4ccccc4)CCCC3)CC2)C1 (configuration not stated)
- EC50 (Chikungunya virus [1]): 2 µM
- solubility kinetic [2]: 60 µM (≈ 27.3 µg/mL)
- Activity (MRC5): Non-toxic
- pIC50 (Polyprotein P1234): 5.20

Compound: O=C(N1CCC2(CC1)CC(CNS(=O)(=O)CCCCl)CCO2)C1(c2ccccc2)CCCC1 (configuration not stated)
- EC50 (Chikungunya virus [1]): 0.631 µM
- solubility kinetic [2]: 100 µM (≈ 49.7 µg/mL)
- Activity (MRC5): Non-toxic
- pIC50 (Polyprotein P1234): 5.70

Compound: Cc1ccnc(NC2CCOC3(CCN(C(=O)C4(c5ccccc5)CCCC4)CC3)C2)c1 (configuration not stated)
- inhibition (Chikungunya virus [3]): 70%
- EC50 (Chikungunya virus [1]): 6.31 µM
- solubility kinetic [2]: 70 µM (≈ 30.4 µg/mL)
- Activity (MRC5): Non-toxic
- pIC50 (Polyprotein P1234): < 4.40

Compound: O=c1nc(NO)ccn1[C@@H]1O[C@H](CO)[C@@H](O)[C@H]1O [N-HYDROXYCYTIDINE]
- pEC50 (Chikungunya virus [1]; 181/25, MRC5, read-out: EC50): 5.92

Compound: O=C(N1CCC2(CC1)CC(CN1CCCS1(=O)=O)CCO2)C1(c2ccccc2)CCCC1 (configuration not stated)
- EC50 (Chikungunya virus [1]): 0.398 µM
- solubility kinetic [2]: > 220 µM
- Activity (MRC5): Non-toxic
- pIC50 (Polyprotein P1234): 5.80

Compound: Cc1cccc(C2(C(=O)N3CCC4(CC3)CC(CNS(=O)(=O)N(C)C)CCO4)CCCC2)c1 (configuration not stated)
- inhibition (Chikungunya virus [3]): 90%
- EC50 (Chikungunya virus [1]): 3.98 µM
- Activity (MRC5): Non-toxic
- pIC50 (Polyprotein P1234): < 4.40

Compound: O=C(N1CCC2(CC1)CC(Nc1ccccc1)CCO2)C1(c2ccccc2)CCCC1 (configuration not stated)
- EC50 (Chikungunya virus [1]): 5.01 µM
- solubility kinetic [2]: 20 µM (≈ 8.37 µg/mL)
- Activity (MRC5): Non-toxic
- pIC50 (Polyprotein P1234): 4.80

Compound: O=C(N1CCC2(CC1)CC(CNCc1ccccc1)CCO2)C1(c2ccccc2)CCCC1 (configuration not stated)
- EC50 (Chikungunya virus [1]): 10 µM
- solubility kinetic [2]: 180 µM (≈ 80.4 µg/mL)
- Activity (MRC5): Non-toxic
- pIC50 (Polyprotein P1234): < 4.40

Compound: CN(C)S(=O)(=O)N(C)CC1CCOC2(CCN(C(=O)C3(c4ccccc4)CCCC3)CC2)C1 (configuration not stated)
- EC50 (Chikungunya virus [1]): 1.58 µM
- solubility kinetic [2]: 160 µM (≈ 76.4 µg/mL)
- Activity (MRC5): Non-toxic
- pIC50 (Polyprotein P1234): 5.30

Compound: CN(C)S(=O)(=O)NCC1CCOC2(CCN(C(=O)C3(c4ccccc4F)CCCC3)CC2)C1 (configuration not stated)
- EC50 (Chikungunya virus [1]): 5.01 µM
- Activity (MRC5): Non-toxic
- pIC50 (Polyprotein P1234): 4.50

Compound: CN(C)S(=O)(=O)NCC1CCOC2(CCN(C(=O)C3(c4ccccc4Cl)CCCC3)CC2)C1 (configuration not stated)
- EC50 (Chikungunya virus [1]): 1.26 µM
- Activity (MRC5): Non-toxic
- pIC50 (Polyprotein P1234): 5.10

Compound: O=C(NCC1CCOC2(CCN(C(=O)C3(c4ccccc4)CCCC3)CC2)C1)C1CCCCC1 (configuration not stated)
- EC50 (Chikungunya virus [1]): 2.51 µM
- solubility kinetic [2]: 130 µM (≈ 60.7 µg/mL)
- Activity (MRC5): Non-toxic
- pIC50 (Polyprotein P1234): 4.50

Compound: CS(=O)(=O)N(Cc1ccccc1)CC1CCOC2(CCN(C(=O)C3(c4ccccc4)CCCC3)CC2)C1 (configuration not stated)
- inhibition (Chikungunya virus [3]): inactive
- EC50 (Chikungunya virus [1]): 10 µM
- solubility kinetic [2]: < 1 µM
- Activity (MRC5): Non-toxic

Compound: O=C(NCC1CCOC2(CCN(C(=O)C3(c4ccccc4)CCCC3)CC2)C1)c1ccccc1 (configuration not stated)
- EC50 (Chikungunya virus [1]): 2.51 µM
- solubility kinetic [2]: 70 µM (≈ 32.2 µg/mL)
- Activity (MRC5): Non-toxic
- pIC50 (Polyprotein P1234): 4.80

Compound: O=C(N1CCC2(CC1)CC(CN1CCCCS1(=O)=O)CCO2)C1(c2ccccc2F)CCCC1 (configuration not stated)
- EC50 (Chikungunya virus [1]): 0.251 µM
- solubility kinetic [2]: 190 µM (≈ 93.6 µg/mL)
- Activity (MRC5): Non-toxic
- pIC50 (Polyprotein P1234): 6.00

Compound: O=C(NCC1CCOC2(CCN(C(=O)C3(c4ccccc4)CCCC3)CC2)C1)Nc1ccccc1 (configuration not stated)
- EC50 (Chikungunya virus [1]): 1.26 µM
- solubility kinetic [2]: 10 µM (≈ 4.76 µg/mL)
- Activity (MRC5): Non-toxic
- pIC50 (Polyprotein P1234): 4.80

Compound: O=C(CCCCl)NCC1CCOC2(CCN(C(=O)C3(c4ccccc4)CCCC3)CC2)C1 (configuration not stated)
- EC50 (Chikungunya virus [1]): 0.316 µM
- solubility kinetic [2]: 170 µM (≈ 78.4 µg/mL)
- Activity (MRC5): Non-toxic
- pIC50 (Polyprotein P1234): 5.70

Compound: O=C(N1CCC2(CC1)CC(CNS(=O)(=O)CCCCCl)CCO2)C1(c2ccccc2)CCCC1 (configuration not stated)
- EC50 (Chikungunya virus [1]): 1.26 µM
- solubility kinetic [2]: 60 µM (≈ 30.7 µg/mL)
- Activity (MRC5): Non-toxic
- pIC50 (Polyprotein P1234): 5.00

Compound: O=C(N1CCC2(CC1)CC(CN1CCCCS1(=O)=O)CCO2)C1(c2cc(F)cc(F)c2)CCCC1 (configuration not stated)
- EC50 (Chikungunya virus [1]): 0.1 µM
- solubility kinetic [2]: 4 µM (≈ 2.04 µg/mL)
- Activity (MRC5): Non-toxic
- pIC50 (Polyprotein P1234): 6.40

Compound: COc1cccc(C2(C(=O)N3CCC4(CC3)CC(CNS(=O)(=O)N(C)C)CCO4)CCCC2)c1 (configuration not stated)
- inhibition (Chikungunya virus [3]): 80%
- EC50 (Chikungunya virus [1]): 6.31 µM
- Activity (MRC5): Non-toxic
- pIC50 (Polyprotein P1234): < 4.40

Compound: CN(CC1CCOC2(CCN(C(=O)C3(c4ccccc4)CCCC3)CC2)C1)S(C)(=O)=O (configuration not stated)
- EC50 (Chikungunya virus [1]): 1.26 µM
- solubility kinetic [2]: 180 µM (≈ 80.8 µg/mL)
- Activity (MRC5): Non-toxic
- pIC50 (Polyprotein P1234): 5.50

Compound: COc1ccccc1NC(=O)NCC1CCOC2(CCN(C(=O)C3(c4ccccc4)CCCC3)CC2)C1 (configuration not stated)
- inhibition (Chikungunya virus [3]): inactive
- EC50 (Chikungunya virus [1]): 3.98 µM
- solubility kinetic [2]: < 10 µM
- Activity (MRC5): Non-toxic

Compound: COc1ccc(NC(=O)NCC2CCOC3(CCN(C(=O)C4(c5ccccc5)CCCC4)CC3)C2)cc1 (configuration not stated)
- EC50 (Chikungunya virus [1]): 3.98 µM
- solubility kinetic [2]: 10 µM (≈ 5.06 µg/mL)
- Activity (MRC5): Non-toxic
- pIC50 (Polyprotein P1234): 4.70

Compound: CCN(C)S(=O)(=O)NCC1CCOC2(CCN(C(=O)C3(c4ccccc4)CCCC3)CC2)C1 (configuration not stated)
- EC50 (Chikungunya virus [1]): 3.98 µM
- solubility kinetic [2]: 160 µM (≈ 76.4 µg/mL)
- Activity (MRC5): Non-toxic
- pIC50 (Polyprotein P1234): 4.80

Compound: CN(CC1CCOC2(CCN(C(=O)C3(c4ccccc4)CCCC3)CC2)C1)S(=O)(=O)CCCCl (configuration not stated)
- EC50 (Chikungunya virus [1]): 0.398 µM
- solubility kinetic [2]: 50 µM (≈ 25.6 µg/mL)
- Activity (MRC5): Non-toxic
- pIC50 (Polyprotein P1234): 6.00

Compound: COc1ccc(C(=O)NCC2CCOC3(CCN(C(=O)C4(c5ccccc5)CCCC4)CC3)C2)cc1 (configuration not stated)
- EC50 (Chikungunya virus [1]): 3.98 µM
- solubility kinetic [2]: 35 µM (≈ 17.2 µg/mL)
- Activity (MRC5): Non-toxic
- pIC50 (Polyprotein P1234): 4.70

Compound: CCCCCCN(CC1CCOC2(CCN(C(=O)C3(c4ccccc4)CCCC3)CC2)C1)S(C)(=O)=O (configuration not stated)
- EC50 (Chikungunya virus [1]): 1.58 µM
- solubility kinetic [2]: < 1 µM
- Activity (MRC5): Non-toxic
- pIC50 (Polyprotein P1234): 4.90

Compound: O=C1CCC(=O)N1CC1CCOC2(CCN(C(=O)C3(c4ccccc4)CCCC3)CC2)C1 (configuration not stated)
- EC50 (Chikungunya virus [1]): 1 µM
- solubility kinetic [2]: 160 µM (≈ 70.2 µg/mL)
- Activity (MRC5): Non-toxic
- pIC50 (Polyprotein P1234): 5.90

Compound: CN(C)S(=O)(=O)NCC1CCOC2(CCN(C(=O)C3(c4cccc(C(F)(F)F)c4)CCCC3)CC2)C1 (configuration not stated)
- inhibition (Chikungunya virus [3]): 40%
- EC50 (Chikungunya virus [1]): 100 µM
- Activity (MRC5): Non-toxic
- pIC50 (Polyprotein P1234): < 4.40

Compound: CS(=O)(=O)NCC1CCOC2(CCN(C(=O)C3(c4cccc(Cl)c4)CCCC3)CC2)C1 (configuration not stated)
- EC50 (Chikungunya virus [1]): 2.51 µM
- Activity (MRC5): Non-toxic
- pIC50 (Polyprotein P1234): 4.70
